Reference: PMC12475274, “Harnessing indole scaffolds to identify small-molecule IRE1α inhibitors modulating XBP1 mRNA splicing” (Nature Communications, 2025)
Several values for one entry are separate records, joined by “and”; a condition that tells them apart may be missing. Identical values can stand only once. Entries after “also recorded” stand apart in the source; their conditions may differ. Like-named read-outs stand apart in the source and are kept apart here.

Key:
[1] = biological target: T1, phosphorylated IRE1α (p-IRE1α) (Homo sapiens, UniProt O75460); assay: FRET-based IRE1α RNase activity assay, phosphorylated IRE1α; format: biochemical; details: for inhibition(%): p-IRE1a
T1 construct: Human IRE1α kinase and RNase domain (residues 547–977) was subcloned into pLIB plasmid; His tag (with TEV cleavage site) (N, cleaved yes); made in house; host or cells: Sf9 insect cells, baculovirus (Bac-to-Bac)
T1 sequence (O75460 547-977): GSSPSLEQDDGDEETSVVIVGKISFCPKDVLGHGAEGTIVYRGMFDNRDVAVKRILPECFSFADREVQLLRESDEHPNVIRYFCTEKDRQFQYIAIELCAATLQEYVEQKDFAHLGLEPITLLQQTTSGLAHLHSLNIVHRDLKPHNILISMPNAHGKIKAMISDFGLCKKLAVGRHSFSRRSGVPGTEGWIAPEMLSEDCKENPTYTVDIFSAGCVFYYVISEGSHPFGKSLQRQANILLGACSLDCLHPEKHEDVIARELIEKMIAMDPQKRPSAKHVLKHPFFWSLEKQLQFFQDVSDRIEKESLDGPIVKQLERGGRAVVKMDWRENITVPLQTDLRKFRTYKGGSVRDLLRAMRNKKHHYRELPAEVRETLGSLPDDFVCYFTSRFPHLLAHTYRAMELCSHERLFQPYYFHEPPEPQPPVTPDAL
Method in brief: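 Cleavage of a dual-labeled XBP1 RNA (200 nM) was followed kinetically over 1 h at room temperature at 485/535 nm, with initial slopes giving percent inhibition and IC50. Enzyme was 4 nM phosphorylated human IRE1α 547–977 from insect cells, incubated with compound for 30 min before substrate; buffer 20 mM HEPES pH 7.5, KOAc, MgOAc2, DTT, Triton X-100.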

dephosphorylated IRE1α = biological target: T2, dephosphorylated IRE1α (Homo sapiens, UniProt O75460); assay: Isothermal titration calorimetry (ITC), incl. competitive ITC; format: binding
T2 construct: Human IRE1α kinase and RNase domain (residues 547–977) was subcloned into pLIB plasmid; His tag (with TEV cleavage site) (N, cleaved yes); made in house; host or cells: Sf9 insect cells, baculovirus (Bac-to-Bac)
T2 sequence (O75460 547-977): as above
Experimental: The dephosphorylated IRE1α protein was used directly after purification, ITC experiments were carried out at 25 °C using MicroCal PEAQ-ITC system (Malvern) in buffer 25 mM HEPES pH 7.5, 250 mM NaCl, 1 mM TCEP, 5% glycerol, 1% DMSO. The solution was diluted to a final 1% DMSO in the same buffer as for the protein. Protein and compound solution were degassed before loading to the cell and syringe respectively. Unless otherwise noted, 200 μM of compound was loaded into the syringe and 10 μM of IRE1α protein was loaded into the sample cell. For competitive ITC, the protein was incubated with the indicated compound at 25 °C (final 1% DMSO) before loading to the cell. Instrument settings were: reference power 10 μcal/s, feedback high, stir speed 750 rpm, initial delays 60 s, injection spacing 150 s, injection duration 4 s. All experiments were performed with a single 0.4 μL injection followed by 18 (or 15), 2 μL injections. Data were analyzed using MicroCal PEAQ-ITC analysis software. The one set of sites fitting model is used for the calorimetry data analysis, with cell concentration and syringe concentration as the input parameters. For compound IA01, the N was set to 1 to improve the fit.

p-IRE1α = biological target: T3, p-IRE1α (Homo sapiens, UniProt O75460); assay: Differential scanning fluorimetry (DSF), p-IRE1α; format: binding; details: for p-IRE1a ∆Tm(°C): individual replicate values; for p-IRE1a ∆Tm: DSF, individual measurements
T3 construct: Human IRE1α kinase and RNase domain (residues 547–977) was subcloned into pLIB plasmid; His tag (with TEV cleavage site) (N, cleaved yes); made in house; host or cells: Sf9 insect cells, baculovirus (Bac-to-Bac)
T3 sequence (O75460 547-977): as above
Experimental: The DSF assay was performed in PBS buffer containing 2 mM DTT, in a total reaction volume of 20 µl with indicated compounds (final 1% DMSO) and the final concentration of 1 µM IRE1α protein and 5× SYPRO Orange fluorescent dye (5000× in DMSO, Sigma S5692). The melting curve was measured at a temperature range from 25 °C to 95 °C and in increments of 1 °C for 30 s using a Bio-Rad CFX96 Real-Time PCR detection system with the FRET scan mode. The melting temperature (Tm) was obtained by fitting the melting curve to Boltzmann sigmoidal in GraphPad Prism and the thermal shift (∆Tm) was calculated by using the equation: ∆Tm = Tm(compound) -Tm(DMSO).

[2] = FRET assay, RNase activity, mean (± SEM), read-out: p-IRE1α IC50
[3] = FRET assay, read-out: p-IRE1α IC50 (RNase activity)
[4] = FRET assay, source data, unit from Fig. 3, read-out: p-IRE1a IC50, individual replicates (n1-n4)
[5] = titrating 200 μM compound into 10 μM IRE1α, no competitor (DMSO), read-out: KD (ITC)
[6] = 200 μM compound into 10 μM IRE1α, no competitor

## COc1ccc2c(c1)c(CCC(=O)O)c(C)n2C(=O)c1ccccc1 [IA64]
[1]; [2]
  IC50: 37.4 nM
[1]; [3]
  IC50: 30 nM
[1]; [4]
  IC50: 61 nM and 17 nM and 34 nM and 26 nM
Dephosphorylated IRE1α; [5]
  Kd: 2960 nM
p-IRE1α; compound 6.25 μM
  p-IRE1a ∆Tm(°C): 0.67 °C and 0.63 °C
p-IRE1α; compound 12.5 μM
  p-IRE1a ∆Tm(°C): 1.12 °C and 1.05 °C
p-IRE1α; compound 25 μM
  p-IRE1a ∆Tm(°C): 1.46 °C and 1.49 °C
p-IRE1α; compound 50 μM
  p-IRE1a ∆Tm(°C): 2.16 °C and 2.21 °C

## COc1ccc2c(c1)c(CCC(=O)O)c(C)n2C(=O)c1ccc(Cl)cc1 [IA01]
[1]; FRET assay at 50 μM, mean (± SEM), read-out: p-IRE1α inhibition%
  inhibition at 50 µM: 99.3%
[1]; FRET assay at 50 μM, source data, 50 µM
  p-IRE1a Inhibiton%, individual measurements: 102.461% and 99.7014% and 101.879% and 92.3671% and 96.3072%
[1]; FRET assay at 50 μM, source data, read-out: p-IRE1a Inhibiton%, individual measurements
  inhibition at 50 µM: 103%
[1]; [2]
  IC50: 320 nM
[1]; [4]
  IC50: 544 nM and 136 nM and 264 nM and 325 nM
Dephosphorylated IRE1α; [6]
  -TΔS (ITC): -2.14 kcal/mol
  N(sites) (ITC): 1
  ΔG (ITC): -7.62 kcal/mol
  ΔH (ITC): -5.48 ± 2.28 kcal/mol
p-IRE1α
  stabilization of p-IRE1α in DSF: concentration-dependently stabilized
p-IRE1α; compound 25 μM
  p-IRE1a ∆Tm: 0.52 °C and 0.47 °C
p-IRE1α; compound 50 μM
  p-IRE1a ∆Tm: 0.91 °C and 1.02 °C

## COc1ccc2c(c1)c(CCC(=O)O)c(C)n2C(=O)c1ccc2ccccc2c1 [IA34]
[1]; FRET assay, RNase activity, mean (± SEM)
  p-IRE1α IC50: IC₅₀ not reached
[1]; [2]
  IC50: > 20000 nM
[1]; IA34 0.000847 μM, Supplementary Fig. 3b, replicate values
  inhibition(%): 2.43% and -1.86% and 1.39%
[1]; IA34 0.00254 μM, Supplementary Fig. 3b, replicate values
  inhibition(%): -5.52% and -18.14% and 21.30% and 14.33%
[1]; IA34 0.007621 μM, Supplementary Fig. 3b, replicate values
  inhibition(%): 0.79% and -13.95% and -1.17% and 1.14%
[1]; IA34 0.022862 μM, Supplementary Fig. 3b, replicate values
  inhibition(%): 1.11% and -4.73% and 39.51% and 0.29%
[1]; IA34 0.068587 μM, Supplementary Fig. 3b, replicate values
  inhibition(%): -18.24% and -15.02% and -11.07% and -8.20%
[1]; IA34 0.205761 μM, Supplementary Fig. 3b, replicate values
  inhibition(%): -19.34% and -16.85% and 12.47% and -7.35%
[1]; IA34 0.617284 μM, Supplementary Fig. 3b, replicate values
  inhibition(%): 15.53% and 10.67% and -18.52% and -10.41%
[1]; IA34 1.85185 μM, Supplementary Fig. 3b, replicate values
  inhibition(%): -19.37% and -18.05% and -6.66% and -19.44%
[1]; IA34 5.55556 μM, Supplementary Fig. 3b, replicate values
  inhibition(%): 14.49% and 0.73% and 11.46% and -10.03%
[1]; IA34 16.6667 μM, Supplementary Fig. 3b, replicate values
  inhibition(%): 26.07% and 13.29% and -8.49% and -17.54%
[1]; IA34 50 μM, Supplementary Fig. 3b, replicate values
  inhibition(%): -20.79% and 2.08% and 7.61% and 4.39%
Dephosphorylated IRE1α
  binding to IRE1α in ITC: no binding signal
p-IRE1α; compound 6.25 μM
  p-IRE1a ∆Tm(°C): 0.04 °C and -0.01 °C
p-IRE1α; compound 12.5 μM
  p-IRE1a ∆Tm(°C): 0 °C and -0.08 °C
p-IRE1α; compound 25 μM
  p-IRE1a ∆Tm(°C): 0.02 °C and 0.03 °C
p-IRE1α; compound 50 μM
  p-IRE1a ∆Tm(°C): 0.03 °C and 0.12 °C

## Cc1ccc2c(NS(=O)(=O)c3ccccc3Cl)cccc2c1Oc1ncccc1-c1ccnc(N[C@H]2CCCNC2)n1 [KIRA8]
[1]
  effect on p-IRE1α RNase activity in the FRET assay: inhibit the p-IRE1α RNase activity
[1]; [2]
  IC50: 3 nM

## Cc1c(CCC(=O)O)c2cc(Br)ccc2n1C(=O)c1ccccc1 [IA107]
[1]; [2]
  IC50: 9.31 nM
[1]; [3]
  IC50: 9 nM
[1]; [4]
  IC50: 11.1 nM and 10.2 nM and 6.6 nM
Dephosphorylated IRE1α; IA107 to IRE1α with 5 μM G1749, read-out: KD (competitive ITC)
  Kd: 2250 nM
Dephosphorylated IRE1α; IA107 to IRE1α with 50 μM G1749, ND, not detectable
  KD (competitive ITC): did not show detectable binding
Dephosphorylated IRE1α; IA107 to IRE1α with 200 μM G1749, ND, not detectable
  KD (competitive ITC): did not show detectable binding
Dephosphorylated IRE1α; [5]
  Kd: 940 nM
Dephosphorylated IRE1α; titrating 200 μM compound to 20 μM dephosphorylated IRE1α, read-out: KD (ITC)
  Kd: 1410 nM
p-IRE1α
  stabilization of p-IRE1α in DSF: stabilized phosphorylated IREα concentration-dependently
p-IRE1α; compound 25 μM
  p-IRE1a ∆Tm: 1.94 °C and 2.53 °C and 2.1 °C and 2.61 °C
p-IRE1α; compound 50 μM
  p-IRE1a ∆Tm: 3.27 °C and 3.18 °C and 2.63 °C and 3 °C
p-IRE1α; compound 100 μM
  p-IRE1a ∆Tm: 3.1 °C and 3.74 °C and 2.72 °C and 2.61 °C

## CCOC(=O)CCc1c(C)n(C(=O)c2ccccc2)c2ccc(Br)cc12 [IAPD1]
[1]
  effect on p-IRE1α RNase activity in the FRET assay: did not inhibit the RNase activity
[1]; 0.00254 μM
  inhibition(%): -4.888% and 2.526% and -4.055% and 4.733%
[1]; 16.6667 μM
  inhibition(%): -1.806% and 4.317% and -3.888% and 0.777%
[1]; 50 μM
  inhibition(%): 0.943% and 1.151% and 1.193% and 2.068%

## CCOC(=O)Nc1cccc2c(Oc3ncccc3-c3ccnc(N[C@H]4CCCNC4)n3)c(C)ccc12 [Compound G1749, reference compound]
[1]
  effect on p-IRE1α RNase activity in the FRET assay: inhibiting p-IRE1α; also recorded: inhibit the p-IRE1α RNase activity
[1]; 5.55556 μM
  inhibition(%): 93.9541% and 94.7061% and 91.8428% and 92.9515%
[1]; 16.6667 μM
  inhibition(%): 92.2815% and 93.8095% and 92.7972% and 92.696%
[1]; 50 μM
  inhibition(%): 92.1465% and 91.4042% and 91.8332% and 89.3845%
Dephosphorylated IRE1α; G1749 to IRE1α with 1 mM IA107, ND, not detectable
  KD (competition ITC): did not show a detectable binding

## Cc1c(CCC(=O)O)c2cc(Cl)ccc2n1C(=O)c1ccccc1 [IA141]
[1]; [2]
  IC50: 82 nM and 80 nM
[1]; [4]
  IC50: 98.9 nM and 83.6 nM and 62.4 nM
Dephosphorylated IRE1α; [5]
  Kd: 1820 nM
p-IRE1α; compound 1.563 μM
  p-IRE1a ∆Tm(°C): 0.12 °C and -0.00583 °C and 0.32 °C and -0.0158 °C
p-IRE1α; compound 3.125 μM
  p-IRE1a ∆Tm(°C): 0.72 °C and 0.27 °C (2×) and 0.32 °C
p-IRE1α; compound 6.25 μM
  p-IRE1a ∆Tm(°C): 0.99 °C and 0.72 °C and 0.76 °C and 0.85 °C
p-IRE1α; compound 12.5 μM
  p-IRE1a ∆Tm(°C): 1.57 °C and 1.31 °C and 1.36 °C and 1.19 °C
p-IRE1α; compound 25 μM
  p-IRE1a ∆Tm(°C): 2.22 °C and 2.10 °C and 1.74 °C and 2.25 °C
p-IRE1α; compound 50 μM
  p-IRE1a ∆Tm(°C): 2.87 °C and 2.43 °C and 2.53 °C and 2.76 °C
p-IRE1α; compound 100 μM
  p-IRE1a ∆Tm(°C): 3.32 °C and 3.36 °C and 3.61 °C and 3.33 °C

## Cc1ccc2c(c1)c(CCC(=O)O)c(C)n2C(=O)c1ccccc1 [IA147]
[1]; [2]
  IC50: 133 nM and 130 nM
[1]; [4]
  IC50: 154 nM and 127 nM and 116 nM
Dephosphorylated IRE1α; [5]
  Kd: 2990 nM
p-IRE1α; compound 1.563 μM
  p-IRE1a ∆Tm(°C): 0.22 °C and 0.13 °C and 0.08 °C and 0.11 °C
p-IRE1α; compound 3.125 μM
  p-IRE1a ∆Tm(°C): 0.29 °C (2×) and 0.42 °C and 0.19 °C
p-IRE1α; compound 6.25 μM
  p-IRE1a ∆Tm(°C): 0.58 °C and 0.78 °C and 0.38 °C and 0.50 °C
p-IRE1α; compound 12.5 μM
  p-IRE1a ∆Tm(°C): 0.95 °C and 0.90 °C and 0.84 °C and 1.22 °C
p-IRE1α; compound 25 μM
  p-IRE1a ∆Tm(°C): 1.52 °C and 1.79 °C and 1.41 °C and 1.95 °C
p-IRE1α; compound 50 μM
  p-IRE1a ∆Tm(°C): 2.33 °C and 2.18 °C and 1.98 °C and 2.60 °C
p-IRE1α; compound 100 μM
  p-IRE1a ∆Tm(°C): 3.18 °C and 2.83 °C and 2.92 °C and 3.09 °C
